Active and inactive are the calls of the source. No cut-off for these calls is given here.
Columns and labels:
[1] = target: T1, Cannabinoid receptor 1 (Homo sapiens, UniProt P21554); test: Agonist activity at human CB1 receptor expressed in insect Sf9 cells assessed as effect on Eu-GTP binding relative to CP-55940
[2] = target: T2, Cannabinoid receptor 2 (Homo sapiens, UniProt P34972); test: Agonist activity at human CB2 receptor assessed as inhibition of forskolin-induced increase in intracellular cAMP; format: functional, cell-based
T2 sequence (P34972 whole entry): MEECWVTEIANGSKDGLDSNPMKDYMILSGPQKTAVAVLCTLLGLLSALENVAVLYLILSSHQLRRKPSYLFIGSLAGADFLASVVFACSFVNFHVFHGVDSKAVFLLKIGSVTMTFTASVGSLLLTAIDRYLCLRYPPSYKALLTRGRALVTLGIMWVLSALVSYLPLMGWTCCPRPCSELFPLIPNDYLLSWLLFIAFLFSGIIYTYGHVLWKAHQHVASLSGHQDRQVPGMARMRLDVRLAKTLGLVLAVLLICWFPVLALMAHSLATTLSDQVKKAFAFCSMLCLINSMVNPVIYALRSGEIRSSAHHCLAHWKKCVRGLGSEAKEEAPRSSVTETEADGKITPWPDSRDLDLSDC

[3] = organism: Homo sapiens; test: Selectivity for human CB2 receptor over human CB1 receptor by on Eu-GTP binding assay
[4] = target: T2, Cannabinoid receptor 2; test: Agonist activity at human CB2 receptor assessed as inhibition of forskolin-induced increase in intracellular cAMP relative to CP-55940; format: functional, cell-based
[5] = target: T1, Cannabinoid receptor 1; test: Agonist activity at human CB1 receptor assessed as inhibition of forskolin-induced increase in intracellular cAMP; format: functional, cell-based
[6] = Metabolic stability in human liver microsome assessed as intrinsic clearance; format: ADME; conditions: liver microsomes
[7] = Clearance in iv dosed rat; format: ADME, organism-based; conditions: in vivo
[8] = target: T1, Cannabinoid receptor 1; test: Agonist activity at human CB1 receptor assessed as inhibition of forskolin-induced increase in intracellular cAMP relative to CP-55940; format: functional, cell-based
[9] = Metabolic stability in rat liver microsome assessed as intrinsic clearance; format: ADME; conditions: liver microsomes
[10] = target: T2, Cannabinoid receptor 2; test: Agonist activity at human CB2 receptor expressed in insect Sf9 cells assessed as effect on Eu-GTP binding relative to CP-55940
[11] = target: T2, Cannabinoid receptor 2; test: Agonist activity at human CB2 receptor expressed in insect Sf9 cells assessed as effect on Eu-GTP binding
[12] = target: T1, Cannabinoid receptor 1; test: Agonist activity at human CB1 receptor expressed in insect Sf9 cells assessed as effect on Eu-GTP binding
[13] = target: T1, Cannabinoid receptor 1; test: Agonist activity at human CB1 receptor expressed in insect Sf9 cells assessed as effect on Eu-GTP binding at 10 uM
[14] = target: T2, Cannabinoid receptor 2; test: Agonist activity at human CB2 receptor expressed in insect Sf9 cells assessed as effect on Eu-GTP binding at 10 uM

T1 sequence (P21554 whole entry): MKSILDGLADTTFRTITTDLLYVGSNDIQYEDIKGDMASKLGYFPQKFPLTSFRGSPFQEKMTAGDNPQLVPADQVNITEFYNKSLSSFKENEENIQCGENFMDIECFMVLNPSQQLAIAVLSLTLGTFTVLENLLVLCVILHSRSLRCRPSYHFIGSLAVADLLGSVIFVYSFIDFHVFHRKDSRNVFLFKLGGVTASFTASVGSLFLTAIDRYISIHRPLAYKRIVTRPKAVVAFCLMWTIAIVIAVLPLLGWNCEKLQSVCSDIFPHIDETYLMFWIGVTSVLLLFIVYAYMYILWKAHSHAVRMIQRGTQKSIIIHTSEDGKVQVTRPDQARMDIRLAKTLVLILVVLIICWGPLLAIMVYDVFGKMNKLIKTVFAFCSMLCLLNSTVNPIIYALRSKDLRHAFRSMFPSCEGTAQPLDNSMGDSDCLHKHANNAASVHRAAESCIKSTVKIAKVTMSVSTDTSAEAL

SMILES	Emax [1] [%]	EC50 [2] [nM]	Emax [4] [%]	EC50 [5] [nM]	Emax [8] [%]	Emax [10] [%]	EC50 [11] [nM]	Activity [13]	Activity [14]	Selectivity [3]	microsomal CLint [6] [µL/min/mg]	clearance [7] [mL/min/kg]	microsomal CLint [9] [µL/min/mg]	EC50 [12] [nM]
O=C(CCc1nc(-c2ccc(F)cc2Cl)no1)Nc1cnc2ccccc2c1	51	5	98	559	49	115	2	–	–	> 200	49	95	126	403
Clc1cnccc1-c1noc(C2CCN(c3cnc4ccccc4c3)CC2)n1	23	–	–	–	–	103	24	–	–	–	251	–	187	96
O=C(NCCc1nc(-c2ccc(F)cc2Cl)no1)c1cnc2ccccc2c1	-1	–	–	–	–	87	1550	inactive	–	> 200	–	–	–	–
Fc1ccc(-c2noc(C3CCN(c4cnc5ccc(OC(F)(F)F)cc5c4)CC3)n2)c(Cl)c1	33	–	–	–	–	110	3	–	–	–	28	–	18	419
Fc1ccc(-c2noc(C3CCN(c4cnc5c(c4)CCCC5)CC3)n2)c(Cl)c1	60	–	–	–	–	113	19	–	–	–	95	–	130	910
Fc1ccc(-c2noc(C3CCN(c4cnc5c(C(F)(F)F)cccc5c4)CC3)n2)c(Cl)c1	34	–	–	–	–	106	16	–	–	–	23	–	54	15
Clc1ccc(-c2noc(C3CCN(c4cnc5ccccc5c4)CC3)n2)cc1	26	–	–	–	–	26	1780	–	–	–	–	–	–	2620
Clc1ccc(-c2noc(C3CCN(c4cnc5ccccc5c4)CC3)n2)c(Cl)c1	27	–	–	–	–	99	80	–	–	–	58	–	43	951
Fc1ccc(-c2noc([C@@H]3CCC[C@H]3Nc3cnc4ccccc4c3)n2)c(Cl)c1 (racemic)	39	–	–	–	–	73	465	–	–	–	–	–	–	2230
CC(CCc1nc(-c2ccc(F)cc2Cl)no1)Nc1cnc2ccccc2c1 (racemic)	69	–	–	–	–	112	15	–	–	> 200	142	–	> 399	1560
CC(C)(CCc1nc(-c2ccc(F)cc2Cl)no1)Nc1cnc2ccccc2c1	70	50	93	> 2000	46	52	53	–	–	> 200	429	–	775	1300
O=C(O)CCc1nc(-c2ccc(F)cc2Cl)no1	0.3	–	–	–	–	10	–	inactive	inactive	> 200	–	–	–	–
Fc1ccc(-c2noc(CCCNc3cnc4ccccc4c3)n2)c(Cl)c1	103	–	–	–	–	104	11	–	–	> 200	179	–	614	472

More lines, main results first:

Emax [1] [%]	EC50 [2] [nM]	Emax [4] [%]	EC50 [5] [nM]	Emax [8] [%]	Emax [10] [%]	EC50 [11] [nM]	Activity [13]	Activity [14]	SMILES	Selectivity [3]	microsomal CLint [6] [µL/min/mg]	clearance [7] [mL/min/kg]	microsomal CLint [9] [µL/min/mg]	EC50 [12] [nM]
93	–	–	–	–	108	32	–	–	CC1(C)CCCc2cc(N3CCC(c4nc(-c5ccc(F)cc5Cl)no4)CC3)cnc21	–	380	–	> 399	722
4	–	–	–	–	77	1600	inactive	–	Fc1ccc(-c2noc([C@H]3CC[C@@H](Nc4cnc5ccccc5c4)C3)n2)c(Cl)c1 (racemic)	–	–	–	–	–
2	–	–	–	–	35	2860	inactive	–	Fc1ccc(-c2noc(C3CCN(c4ccnc5ccccc45)CC3)n2)c(Cl)c1	–	–	–	–	–
8	–	–	–	–	53	313	inactive	–	c1ccc2ncc(N3CCC(c4nc(-c5ccncc5)no4)CC3)cc2c1	–	–	–	–	–
13	–	–	–	–	88	340	inactive	–	CC(C)n1ccc2cc(N3CCC(c4nc(-c5ccc(F)cc5Cl)no4)CC3)cnc21	–	–	–	–	–
46	> 2000	23	> 2000	3	116	86	–	–	Fc1ccc(-c2noc(C[C@@H]3CCN(c4cnc5ccccc5c4)C3)n2)c(Cl)c1	–	215	–	426	1270
105	–	–	–	–	113	26	–	–	c1ccc2ncc(N3CCC(c4nc(C5CCCCC5)no4)CC3)cc2c1	–	283	–	185	600
8	–	–	–	–	38	1440	inactive	–	CC(C)c1noc(C2CCN(c3cnc4ccccc4c3)CC2)n1	–	–	–	–	–
2	–	–	–	–	93	376	inactive	–	Fc1ccc(-c2noc(C3CCN(c4ccc(Cl)c(C(F)(F)F)c4)CC3)n2)c(Cl)c1	–	–	–	–	–
36	17	95	> 1000	17	101	89	–	–	Fc1ccc(-c2noc(C3CCN(c4cnc5ccccc5c4)CC3)n2)c(Cl)c1	–	92	–	80	3030
8	–	–	–	–	89	1550	inactive	–	Fc1ccccc1-c1noc(C2CCN(c3cnc4ccccc4c3)CC2)n1	–	–	–	–	–
24	–	–	–	–	109	140	–	–	Fc1ccc(-c2noc(C[C@H]3CCN(c4cnc5ccccc5c4)C3)n2)c(Cl)c1	–	215	–	579	1690
8	> 2000	0	> 2000	1	110	99	inactive	–	Fc1ccc(-c2noc([C@H]3C[C@@H]3CNc3cnc4ccccc4c3)n2)c(Cl)c1 (racemic)	–	69	–	193	–

Reference: ChEMBL document CHEMBL1155906, “Structural modifications of N-arylamide oxadiazoles: Identification of N-arylpiperidine oxadiazoles as potent and selective agonists of CB2” (Bioorg Med Chem Lett, 2008)
